Legend:
[1] = Measurement of Average Thickness Increase of single hair fibers; conditions: Sepigel 1.89%, Example 1 formula, fibers treated 10 minutes, dried overnight
Procedure: Measurement of Average Thickness Increase
• 1) Asian or Caucasian hair fibers (low-lift general population) are soaked in deionized water for 10 minutes, and allowed to equilibrate overnight in at Controlled Temperature and Humidity room (20 C, 50 RH). • 2) The single hair fibers are imaged with microscope and the diameter is measured using software for baseline measurement. • 3) The hair fibers are then treated with the hair care composition for 10 minutes to allow for saturation. The fibers are then removed and allowed to equilibrate and dry overnight. • 4) The next day, the fibers are imaged and measured for a final reading. For each experiment, untreated control and product treatment controls are ran, and at least 5 fibers are measured per treatment. • 5) In order to measure increase in thickness as a function of treatment, the […]. The average thickness increase is reported in the Table above, with measurements reported in micrometers. Viscosity Test Method

[2] = Viscosity Test Method (cone and plate viscometer/rheometer); type: physicochemical; conditions: Sepigel 1.89%
Excerpt: The hair care composition may have a viscosity of from about 2,000 cps to about 20,000 cps, alternatively from about 10,000 cps to about 15,000 cps. The viscosity of the hair care composition may be determined by a cone and plate viscometer/rheometer which measures the viscous drag resulting from the sample material contained in the gap between a rotating cone and a stationary plate. The geometry of the cone and plate may be such that the entire sample is subjected to a uniform shear rate. A Brookfield Rheometer RS, with Cone C75-1, 26.7° C. temperature, 2.5 mL sample size, at 2 res/sec for 3 minutes may be used.

Viscosity ([2]; composition with Resorcinol 0.5%): 14767 cps | Viscosity ([2]; composition with Resorcinol 1%): 12115 cps | Viscosity ([2]; composition with Resorcinol 2%): 13812 cps | Viscosity ([2]; composition with Resorcinol 5%): 12047 cps | Viscosity ([2]; composition with Resorcinol 8%): 10308 cps
Compound: Oc1cccc(O)c1 [Resorcinol, 1,3-Dihydroxybenzene]
Average Thickness Increase ([1]; Resorcinol 0.5%): 4.2 μm | Average Thickness Increase ([1]; Resorcinol 1%): 3.9 μm | Average Thickness Increase ([1]; Resorcinol 2%): 13.5 μm | Average Thickness Increase ([1]; Resorcinol 5%): 10.7 μm | Average Thickness Increase ([1]; Resorcinol 8%): 10.3 μm
